Measurements: ChEMBL document CHEMBL4339236, “Colletopeptides A-D, Anti-inflammatory Cyclic Tridepsipeptides from the Plant Endophytic Fungus Colletotrichum sp. S8” (J Nat Prod, 2019)
Active and inactive are the calls of the source. The calls are words filed in the database; no cut-off is given here.

Key:
RAW264.7 [1] = test: Antiinflammatory activity in mouse RAW264.7 cells assessed as inhibition of LPS-induced nitric oxide production preincubated for 12 hrs followed by LPS-stimulation and measured after 24 hrs by Griess assay; format: functional, cell-based
[2] = target: T1, NF-kappa-B inhibitor alpha (Mus musculus) (UniProt Q9Z1E3); test: Inhibition of IkappaBalpha phosphorylation in LPS-stimulated mouse RAW264.7 cells at 20 to 40 uM preincubated for 12 hrs followed by LPS stimulation and measured after 24 hrs by Western blot analysis; format: cell-based
T1 sequence (whole entry): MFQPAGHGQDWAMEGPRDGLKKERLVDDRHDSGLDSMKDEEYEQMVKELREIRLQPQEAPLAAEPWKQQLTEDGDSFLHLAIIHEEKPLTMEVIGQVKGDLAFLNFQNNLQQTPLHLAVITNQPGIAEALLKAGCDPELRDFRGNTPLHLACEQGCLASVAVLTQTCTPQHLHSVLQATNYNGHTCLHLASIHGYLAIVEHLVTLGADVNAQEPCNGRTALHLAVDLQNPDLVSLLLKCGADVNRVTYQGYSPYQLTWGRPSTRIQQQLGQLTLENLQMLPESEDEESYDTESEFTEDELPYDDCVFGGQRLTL

A549 = test: Cytotoxicity against human A549 cells measured after 48 hrs by MTS assay; format: cell-based; settings: a549, 48 h
[3] = target: Transcription factor p65 (Mus musculus) (UniProt Q04207); test: Inhibition of NFkappaB p65 phosphorylation in LPS-stimulated mouse RAW264.7 cells at 20 to 40 uM preincubated for 12 hrs followed by LPS stimulation and measured after 24 hrs by Western blot analysis; format: cell-based
HeLa = test: Cytotoxicity against human HeLa cells measured after 48 hrs by MTS assay; format: cell-based
Bacillus subtilis = test: Antibacterial activity against Bacillus subtilis measured after 24 hrs by broth microdilution assay; format: functional, organism-based
HepG2 [4] = test: Lipid lowering activity in human HepG2 cells assessed as reduction in oleic acid-induced lipid accumulation after 24 hrs by oil red O staining based spectrophotometric method; format: functional, cell-based
[5] = target: Histone deacetylase (Homo sapiens) (UniProt Q13547+O15379+Q9UBN7+Q92769+Q9UQL6+Q8WUI4+Q9BY41+Q96DB2+P56524+Q9UKV0+Q969S8); test: Inhibition of HDAC in human HeLa nuclear extracts using Boc-Lys(Ac)-AMC as substrate by fluorescence assay; format: cell-free
Aeromonas hydrophila = test: Antibacterial activity against Aeromonas hydrophila measured after 24 hrs by broth microdilution assay; format: functional, organism-based
HCT-116 = test: Cytotoxicity against human HCT116 cells measured after 48 hrs by MTS assay; format: cell-based; settings: hct-116, 48 h
HepG2 [6] = test: Cytotoxicity against human HepG2 cells measured after 48 hrs by MTS assay; format: cell-based; settings: hepg2, 48 h
MDA-MB-231 = test: Cytotoxicity against human MDA-MB-231 cells measured after 48 hrs by MTS assay; format: cell-based; settings: mda-mb-231, 48 h
Staphylococcus aureus = test: Antibacterial activity against Staphylococcus aureus measured after 24 hrs by broth microdilution assay; format: functional, organism-based
Escherichia coli = test: Antibacterial activity against Colon bacillus measured after 24 hrs by broth microdilution assay; format: functional, organism-based
RAW264.7 [7] = test: Antiinflammatory activity in mouse RAW264.7 cells assessed as inhibition of LPS-induced TNFalpha production preincubated for 12 hrs followed by LPS-stimulation and measured after 24 hrs by ELISA; format: functional, cell-based
RAW264.7 [8] = test: Antiinflammatory activity in mouse RAW264.7 cells assessed as inhibition of LPS-induced IL-6 production preincubated for 12 hrs followed by LPS-stimulation and measured after 24 hrs by ELISA; format: functional, cell-based

Sequence of Transcription factor p65 (Mus musculus) (Q04207 whole entry): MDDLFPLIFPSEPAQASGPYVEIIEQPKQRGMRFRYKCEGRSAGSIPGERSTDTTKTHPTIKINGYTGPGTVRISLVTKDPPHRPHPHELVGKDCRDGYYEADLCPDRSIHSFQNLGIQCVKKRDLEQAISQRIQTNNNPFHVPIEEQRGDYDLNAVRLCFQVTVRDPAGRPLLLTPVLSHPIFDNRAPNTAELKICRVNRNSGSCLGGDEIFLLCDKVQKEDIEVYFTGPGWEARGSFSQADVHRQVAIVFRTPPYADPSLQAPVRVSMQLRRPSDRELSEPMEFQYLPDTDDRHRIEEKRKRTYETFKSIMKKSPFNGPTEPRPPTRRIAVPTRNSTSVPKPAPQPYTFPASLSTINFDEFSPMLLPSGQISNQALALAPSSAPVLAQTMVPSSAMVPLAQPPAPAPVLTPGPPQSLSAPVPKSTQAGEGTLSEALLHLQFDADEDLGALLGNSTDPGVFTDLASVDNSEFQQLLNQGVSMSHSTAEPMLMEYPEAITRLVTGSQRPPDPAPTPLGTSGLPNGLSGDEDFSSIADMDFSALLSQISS

Row | IC50 (RAW264.7 [1]) [µM] | inhibition [2] | inhibition [3] | inhibition [5] | Compound | Activity (A549) | Activity (HeLa) | Activity (Bacillus subtilis) | Activity (HepG2 [4]) | Activity (Aeromonas hydrophila) | Activity (HCT-116) | Activity (HepG2 [6]) | Activity (MDA-MB-231) | Activity (Staphylococcus aureus) | Activity (Escherichia coli) | inhibition (RAW264.7 [7]) | inhibition (RAW264.7 [8])
1 | 18.4 | – | – | – | C[C@@H]1C[C@H]2[C@@H]3CCC4=CC(=O)C=C[C@]4(C)[C@@]3(F)[C@@H](O)C[C@]2(C)[C@@]1(O)C(=O)CO [DEXAMETHASONE] | – | – | – | – | – | – | – | – | – | – | – | –
2 | 13.5 | Active | Active | inactive | CC(C)[C@H]1C(=O)O[C@H]([C@@H](C)CCCC[C@@H](C)O)C[C@@H](O)[C@@H](C)C(=O)N[C@H](Cc2ccccc2)C(=O)N1C | Non-Toxic | Non-Toxic | inactive | Active | inactive | Non-Toxic | Non-Toxic | Non-Toxic | inactive | inactive | – | –
3 | 8.3 | Active | Active | inactive | CC[C@H](C)[C@H]1C(=O)O[C@H]([C@@H](C)CCCC[C@@H](C)O)C[C@@H](O)[C@@H](C)C(=O)N[C@H](Cc2ccccc2)C(=O)N1C | Non-Toxic | Non-Toxic | inactive | Active | inactive | Non-Toxic | Non-Toxic | Non-Toxic | inactive | inactive | Dose-dependent effect | Dose-dependent effect
4 | 38.7 | – | – | inactive | CC(C)C[C@H]1C(=O)O[C@H]([C@@H](C)CCCC[C@@H](C)O)C[C@@H](O)[C@@H](C)C(=O)N[C@H](Cc2ccccc2)C(=O)N1C | Non-Toxic | Non-Toxic | inactive | Active | inactive | Non-Toxic | Non-Toxic | Non-Toxic | inactive | inactive | – | –
5 | 22.2 | – | – | inactive | CC[C@H](C)[C@H]1C(=O)O[C@@H](CCCCC[C@@H](C)O)C[C@@H](O)[C@@H](C)C(=O)N[C@H](Cc2ccccc2)C(=O)N1C | Non-Toxic | Non-Toxic | inactive | Active | inactive | Non-Toxic | Non-Toxic | Non-Toxic | inactive | inactive | – | –
